Here are results for eight compounds from US12435072B2, “Compounds” (Vicore Pharma AB, priority 2019, dated 2025).

The nature of data set [1]: Metabolic stability in pooled human liver microsomes. In kind it is in vitro ADME. As to conditions: pooled human liver microsomes 0.5 mg/ml, 1 μM test compound, 37° C.
Data set [2] concerns the target T1, human recombinant AT2 receptor (Homo sapiens, UniProt P50052).
T1 construct: purchased Eurofins ITEM26
T1 sequence (P50052 1-363): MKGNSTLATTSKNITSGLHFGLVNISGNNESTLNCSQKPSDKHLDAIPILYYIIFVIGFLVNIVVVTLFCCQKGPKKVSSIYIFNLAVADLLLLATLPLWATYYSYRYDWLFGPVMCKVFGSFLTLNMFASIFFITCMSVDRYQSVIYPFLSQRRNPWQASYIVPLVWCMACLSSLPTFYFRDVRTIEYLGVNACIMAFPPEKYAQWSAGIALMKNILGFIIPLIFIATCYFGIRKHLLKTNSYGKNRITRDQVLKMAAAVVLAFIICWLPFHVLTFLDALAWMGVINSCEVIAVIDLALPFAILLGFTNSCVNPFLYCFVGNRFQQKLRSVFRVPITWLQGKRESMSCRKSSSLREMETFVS
In words: Binding to AT2 receptor, radiometric scintillation assay (Eurofins). As to conditions: ligand 125I CGP 42112A, tested at 1, 10, 100 and 1000 nM. On the procedure: (§1) Compounds were evaluated for binding to the human recombinant AT2 and AT1 receptor according to Eurofins protocol ITEM26 and ITEM24 using a radiometric scintillation assay.

The target of data set [3] is T2, human recombinant AT1 receptor (Homo sapiens, UniProt P30556).
T2 construct: purchased Eurofins ITEM24
T2 sequence (P30556 1-359): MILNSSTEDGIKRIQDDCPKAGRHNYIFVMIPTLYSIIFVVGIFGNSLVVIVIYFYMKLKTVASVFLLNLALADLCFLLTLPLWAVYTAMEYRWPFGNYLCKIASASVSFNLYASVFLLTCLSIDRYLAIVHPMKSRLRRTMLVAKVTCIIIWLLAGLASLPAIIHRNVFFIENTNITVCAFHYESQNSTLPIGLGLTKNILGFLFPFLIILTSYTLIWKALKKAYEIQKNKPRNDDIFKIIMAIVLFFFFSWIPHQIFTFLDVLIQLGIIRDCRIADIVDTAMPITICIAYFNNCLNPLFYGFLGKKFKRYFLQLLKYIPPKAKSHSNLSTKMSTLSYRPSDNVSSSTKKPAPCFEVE
In words: Binding to AT1 receptor, radiometric scintillation assay (Eurofins). The note with it: ligand 125I(sar1,Ile8)-AT-II, tested at 1 and 10 μM. On the procedure: as §1

In data set [4] the target is T3, CYP1A (Homo sapiens, UniProt P05177).
T3 construct: incubated with human liver microsomes; tissue Eurofins ITEMG232; host or cells: human liver microsomes
T3 sequence (P05177 1-516): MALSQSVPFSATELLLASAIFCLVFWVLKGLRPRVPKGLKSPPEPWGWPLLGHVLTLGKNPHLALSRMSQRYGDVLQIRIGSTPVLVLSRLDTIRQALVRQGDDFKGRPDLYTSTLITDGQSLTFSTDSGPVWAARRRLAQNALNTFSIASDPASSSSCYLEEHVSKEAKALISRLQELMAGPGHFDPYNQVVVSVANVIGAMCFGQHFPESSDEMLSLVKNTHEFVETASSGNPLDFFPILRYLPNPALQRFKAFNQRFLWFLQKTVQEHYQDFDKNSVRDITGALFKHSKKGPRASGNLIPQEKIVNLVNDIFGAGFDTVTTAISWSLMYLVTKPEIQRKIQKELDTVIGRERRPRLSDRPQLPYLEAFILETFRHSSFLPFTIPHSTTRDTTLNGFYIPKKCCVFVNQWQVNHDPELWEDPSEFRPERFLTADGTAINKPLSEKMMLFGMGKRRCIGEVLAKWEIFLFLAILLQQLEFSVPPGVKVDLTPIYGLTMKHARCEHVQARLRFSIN
As to the kind of experiment: CYP inhibition in human liver microsomes, CYP1A. In kind it is in vitro ADME. The note with it: probe phenacetin, substrate phenacetin, read-out: CYP1A Inh %. On the procedure:
(§2) The following substrates were used: CYP1A phenacetin, CYP2B6 bupropion, CYP2C8 paclitaxel and amodiaquine, CYP2C9 diclofenac, CYP2C19 omeprazole, CYP2D6 dextromethorphan, CYP3A midazolam and testosterone. At the end of the incubation, the formation of metabolite was monitored by HPLC-MS/MS as the peak area response.
In general terms: Liver microsomes are vesicles of endoplasmic reticulum, rich in cytochrome P450 enzymes.

In data set [5] the target is T4, CYP2C8 (Homo sapiens, UniProt P10632).
T4 construct: incubated with human liver microsomes; tissue Eurofins ITEMG232; host or cells: human liver microsomes
T4 sequence (P10632 1-490): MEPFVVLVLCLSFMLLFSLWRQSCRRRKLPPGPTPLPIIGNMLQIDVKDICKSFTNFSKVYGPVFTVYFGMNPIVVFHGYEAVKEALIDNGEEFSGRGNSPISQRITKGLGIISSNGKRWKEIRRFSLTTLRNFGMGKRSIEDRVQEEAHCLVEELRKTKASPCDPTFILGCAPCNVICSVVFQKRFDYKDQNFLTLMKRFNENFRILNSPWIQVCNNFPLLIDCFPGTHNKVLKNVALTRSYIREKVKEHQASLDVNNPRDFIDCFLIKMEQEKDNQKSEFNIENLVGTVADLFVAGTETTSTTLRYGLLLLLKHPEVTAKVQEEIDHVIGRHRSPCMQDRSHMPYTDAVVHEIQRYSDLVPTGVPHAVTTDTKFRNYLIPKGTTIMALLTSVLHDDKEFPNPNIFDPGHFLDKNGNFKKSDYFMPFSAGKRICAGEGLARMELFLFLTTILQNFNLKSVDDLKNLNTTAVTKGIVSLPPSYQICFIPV
In words: CYP inhibition in human liver microsomes, CYP2C8. It is filed as in vitro ADME. As to conditions: probe paclitaxel and amodiaquine, substrate paclitaxel and amodiaquine, read-out: CYP2C8 Inh %. The essentials: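 For CYP2D6 inhibition, dextromethorphan was the substrate; diclofenac served for CYP2C9, while CYP2C8 activity was followed with paclitaxel and amodiaquine. Formation of each metabolite at incubation end was recorded as HPLC-MS/MS peak area.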

Data set [6] concerns CYP3A4&5. As to the kind of experiment: CYP inhibition in human liver microsomes, CYP3A4&5 (testosterone). It is filed as in vitro ADME. The note with it: probe testosterone, substrate testosterone, read-out: CYP3A4&5 testosterone Inh %. On the procedure:
as §2

Data set [7] deals with CYP3A4 (Homo sapiens, UniProt P08684). In words: CYP inhibition in human liver microsomes, CYP3A4 (midazolam). Details: incubated with human liver microsomes; tissue Eurofins ITEMG232; host or cells: human liver microsomes. As to conditions: probe midazolam, substrate midazolam, read-out: CYP3A4 midazolam Inh %. It is filed as in vitro ADME. The method, then:
as §2

[8] abbreviates: with 1 mM NADPH, read-out: T1/2, + NaDPH.
Setting [9] is: without NADPH, read-out: T1/2, no NaDPH.

Where two headings read alike, the source gives them in different places.

Chain of CYP3A4 (P08684 whole entry): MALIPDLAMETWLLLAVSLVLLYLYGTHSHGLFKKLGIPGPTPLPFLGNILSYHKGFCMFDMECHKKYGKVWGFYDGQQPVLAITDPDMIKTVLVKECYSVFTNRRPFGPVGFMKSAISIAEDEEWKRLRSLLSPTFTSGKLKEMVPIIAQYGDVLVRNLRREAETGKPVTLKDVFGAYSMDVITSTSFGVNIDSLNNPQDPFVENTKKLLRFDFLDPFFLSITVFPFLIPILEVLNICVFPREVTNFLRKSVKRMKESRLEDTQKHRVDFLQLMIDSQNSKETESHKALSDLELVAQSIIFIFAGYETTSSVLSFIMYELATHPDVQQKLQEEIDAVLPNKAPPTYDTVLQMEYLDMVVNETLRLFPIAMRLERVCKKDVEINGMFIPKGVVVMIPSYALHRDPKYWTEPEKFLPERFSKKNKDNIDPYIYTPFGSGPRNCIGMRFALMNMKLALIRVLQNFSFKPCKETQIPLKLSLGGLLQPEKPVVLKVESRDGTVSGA

As usually defined, the IC50 is the midpoint of a concentration-inhibition curve. For the compound `Cc1nccn1Cc1ccc(-c2cc(CC(C)C)sc2S(=O)(=O)NC(=O)NCc2nccn2C)cc1F` [Example 15, 1-(3-{3-Fluoro-4-[(2-methyl-1H-imidazol-1-yl)methyl]phenyl}-5-isobutyl-2-thienylsulfonyl)-3-[(1-methyl-1H-imidazol-2-yl)methyl]urea], the half-life at 1 μM in data set [1] (setting [8]) and in data set [1] (setting [9]) was more than 60 min throughout. Besides, the values for the IC50 in data set [2] and in data set [3] were 4.9 nM and 463 µM, respectively. For the same compound, the inhibition at 10 µM in data set [4] was 20%; in data set [5], 48%; in data set [6] it was 12%; in data set [7] it was 38%.
Take `Cc1nccn1Cc1ccc(-c2cc(CC(C)C)sc2S(=O)(=O)NC(=O)NC(C)c2ccccn2)cc1F` (stereo not shown) [Example 25, 3-(3-{3-Fluoro-4-[(2-methyl-1H-imidazol-1-yl)methyl]phenyl}-5-isobutyl-2-thienylsulfonyl)-1-[1-(2-pyridyl)ethyl]urea]: the values for the half-life at 1 μM in data set [1] (setting [8]) and in data set [1] (setting [9]) were 60 min and more than 60 min, respectively. For the same compound, the IC50 in data set [2] is 2.5 nM; in data set [3], 30 µM. In addition, the inhibition at 10 µM in data set [4] worked out at 8%; in data set [5], 56%; in data set [6] it was 15%; in data set [7], 16%.
On to `CCc1nccn1Cc1ccc(-c2cc(CC(C)C)sc2S(=O)(=O)NC(=O)NCc2ccc(F)cc2)cc1F.O=C(O)C(F)(F)F` [Example 32, 3-[(3-{4-[(2-ethyl-1H-imidazol-1-yl)methyl]-3-fluorophenyl}-5-(2-methylpropyl)thiophen-2-yl)sulfonyl]-1-[(4-fluorophenyl)methyl] urea trifluoroacetic acid], for which the results for the half-life at 1 μM in data set [1] (setting [8]) and in data set [1] (setting [9]) were 7 min and more than 60 min, respectively. Also, the IC50 in data set [2] came out at 1.6 nM; in data set [3], 5 µM. Moreover, the inhibition at 10 µM is -26% in data set [4], 65% in data set [5], 10% in data set [6] and 35% in data set [7].
Take `CCCNC(=O)NS(=O)(=O)c1sc(CC(C)C)cc1-c1ccc(Cn2ccnc2CC)c(F)c1.O=C(O)C(F)(F)F` [Example 33, 1-[(3-{4-[(2-ethyl-1H-imidazol-1-yl)methyl]-3-fluorophenyl}-5-(2-methylpropyl)thiophen-2-yl)sulfonyl]-3-propylurea trifluoroacetic acid]: the half-life at 1 μM in data set [1] (setting [8]) and in data set [1] (setting [9]) was more than 60 min each time. Also, the values for the IC50 in data set [2] and in data set [3] were 5.1 nM and 19 µM, respectively. Further, the inhibition at 10 µM in data set [4] was 14%; in data set [5], 69%; in data set [6], 11%; in data set [7] it was -37%.
As for `Cc1nccn1Cc1ccc(-c2cc(CC(C)C)sc2S(=O)(=O)NC(=O)NCc2ccc(F)c(F)c2)cc1F.O=C(O)C(F)(F)F` [Example 34, 1-[(3,4-difluorophenyl)methyl]-3-[(3-{3-fluoro-4-[(2-methyl-1H-imidazol-1-yl)methyl]phenyl}-5-(2-methylpropyl)thiophen-2-yl)sulfonyl]urea trifluoroacetic acid], the half-life at 1 μM in data set [1] (setting [8]) was 6 min; in data set [1] (setting [9]) it was more than 60 min. The IC50 in data set [2] amounted to 5.2 nM; in data set [3], 21 µM. Further, the inhibition at 10 µM in data set [4] was -6%; in data set [5], 64%; in data set [6], 60%; in data set [7], 74%.
With `Cc1nccn1Cc1ccc(-c2cc(CC(C)C)sc2S(=O)(=O)NC(=O)NCc2cccs2)cc1F.O=C(O)C(F)(F)F` [Example 35, 1-[(3-{3-fluoro-4-[(2-methyl-1H-imidazol-1-yl)methyl]phenyl}-5-(2-methylpropyl)thiophen-2-yl)sulfonyl]-3-[(thiophen-2-yl)methyl]urea trifluoroacetic acid], the half-life at 1 μM is 45 min in data set [1] (setting [8]) and more than 60 min in data set [1] (setting [9]). The IC50 came to 0.63 nM in data set [2] and 8 µM in data set [3]. Further, the inhibition at 10 µM in data set [4] is 20%; in data set [5] it was 56%; in data set [6] it was 25%; in data set [7], 26%.
Turning to `Cc1nccn1Cc1ccc(-c2cc(CC(C)C)sc2S(=O)(=O)NC(=O)NCc2cc(Cl)ccn2)cc1F.O=C(O)C(F)(F)F` [Example 38, 1-[(4-chloropyridin-2-yl)methyl]-3-[(3-{3-fluoro-4-[(2-methyl-1H-imidazol-1-yl)methyl]phenyl}-5-(2-methylpropyl)thiophen-2-yl)sulfonyl]urea trifluoroacetic acid], the half-life at 1 μM was 27 min in data set [1] (setting [8]) and more than 60 min in data set [1] (setting [9]). The results for the concentration for half-maximal inhibition (IC50) in data set [2] and in data set [3] were 16.6 nM and 25 µM, respectively. The inhibition at 10 µM in data set [4] is 13%; in data set [5], 62%; in data set [6], 13%; in data set [7], 22%.
On to `Cc1nccn1Cc1ccc(-c2cc(CC(C)C)sc2S(=O)(=O)NC(=O)NCC(C)C)cc1F.O=C(O)C(F)(F)F` [Example 39, 1-[(3-{3-fluoro-4-[(2-methyl-1H-imidazol-1-yl)methyl]phenyl}-5-(2-methylpropyl)thiophen-2-yl)sulfonyl]-3-(2-methylpropyl)urea trifluoroacetic acid], for which the results for the half-life at 1 μM in data set [1] (setting [8]) and in data set [1] (setting [9]) were 60 min and more than 60 min, respectively. Also, the IC50 is 8.6 nM in data set [2] and 16 µM in data set [3]. Also, the inhibition at 10 µM in data set [4] was -2%; in data set [5], 51%; in data set [6], 27%; in data set [7] it was 18%.
